In US12404232B2, “Compounds and compositions for intracellular delivery of therapeutic agents” (ModernaTX, Inc., priority 2015, dated 2025):

How the values were obtained:
[1] = Particle size and polydispersity index of nanoparticle compositions (Zetasizer Nano ZS); assay type: physicochemical; conditions: for PDI: nanoparticle composition 50:10:38.5:1.5 mol % (Table 1A)
How it was run: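 Formulations at 50:10:38.5:1.5 mol % (ionizable lipid, DSPC, cholesterol, PEG-DMG) encapsulating Luc or hEPO mRNA were measured in 1×PBS on a Zetasizer Nano ZS to give size and polydispersity index.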

[2] = Encapsulation of RNA by the nanoparticle composition (QUANT-IT RIBOGREEN RNA assay); assay type: physicochemical
Description: The efficiency of encapsulation of a therapeutic and/or prophylactic describes the amount of therapeutic and/or prophylactic that is encapsulated or otherwise associated with a nanoparticle composition after preparation, relative to the initial amount provided. The encapsulation efficiency is desirably high (e.g., close to 100%). The encapsulation efficiency may be measured, for example, by comparing the amount of therapeutic and/or prophylactic in a solution containing the nanoparticle composition before and after breaking up the nanoparticle composition with one or more organic solvents or detergents. Fluorescence may be used to measure the amount of free therapeutic and/or prophylactic (e.g., RNA) in a solution. For the nanoparticle compositions described herein, the encapsulation efficiency of a therapeutic and/or prophylactic may be at least 50%, for example 50%, 55%, 60%, 65%, 70%, 75%, 80%, 85%, 90%, 91%, 92%, 93%, 94%, 95%, 96%, 97%, 98%, 99%, or 100%. In some embodiments, the encapsulation efficiency may be at least 80%. In certain embodiments, the encapsulation efficiency may be at least 90%.
For nanoparticle compositions including an RNA, a QUANT-IT™ RIBOGREEN® RNA assay (Invitrogen Corporation Carlsbad, CA) can be used to evaluate the encapsulation of an RNA by the nanoparticle composition. The samples are diluted to a concentration of approximately […] in a TE buffer solution (10 mM Tris-HCl, 1 mM EDTA, pH 7.5). 50 μL of the diluted samples are transferred to a polystyrene 96 well plate and either 50 μL of TE buffer or 50 μL of a 2% Triton X-100 solution is added to the wells. The plate is incubated at a temperature of 37° C. for 15 minutes. The RIBOGREEN® reagent is diluted 1:100 in TE buffer, and 100 μL of this solution is added to each well. The fluorescence intensity can be measured using a fluorescence plate reader (Wallac Victor 1420 Multilablel Counter; Perkin Elmer, Waltham, MA) at an excitation wavelength of, for example, about 480 nm and an emission wavelength of, for example, about 520 nm. The fluorescence values of the reagent blank are subtracted from that of each of the samples and the percentage of free RNA is determined by dividing the fluorescence intensity of the intact sample (without addition of Triton X-100) by the fluorescence value of the disrupted sample (caused by the addition of Triton X-100).
Initial studies were performed to compare the delivery efficiency of nanoparticle compositions including various compounds according to Formula (I), (IA), (II), (IIa), (IIb), (IIc), (IId) or (IIe). The cationic lipid MC3 is a current standard in the art. Accordingly, the standard MC3 formulation including about 50 mol % MC3, about 10 mol % DSPC, about 38.5 mol % cholesterol, and about 1.5 mol % PEG-DMG was used as a basis for this study. Nanoparticle compositions including DSPC as a phospholipid, cholesterol as a structural lipid, PEG-DMG as a PEG lipid, an RNA, and a compound according to Formula (I), (IA), (II), (IIa), (IIb), (IIc), (IId) or (IIe) selected from Compounds 1-159, 168-170, and 173-175 were prepared according to or via methods similar to those described in Examples 1 and 2. The ratios of the lipids were 50:10:38.5:1.5 mol % for the lipid according to Formula (I), (IA), (II), (IIa), (IIb), (IIc), (IId) or (IIe):DSPC:cholesterol:PEG-DMG. The RNA used was an mRNA encoding G5 luciferase (Luc) or G5 hEPO. Tables 1A-1B summarize the content and characteristics of the formulations. […]

mice [3] = experiment: Cytokine induction (IL-6, IP-10) in mice after intravenous administration; assay type: in vivo; set-up: IL-6 / IP-10: unit not given here; conditions: 0.5 mpk; for IL-6 / IP-10: 6 hours
Description: The introduction of foreign material into a mammalian body induces an innate immune response that promotes cytokine production. Such immune responses to, for example, nanoparticle compositions including therapeutic and/or prophylactics, are undesirable. The induction of certain cytokines is thus measured to evaluate the […] of nanoparticle compositions. The concentrations of various cytokines in mice upon intravenous administration of nanoparticle compositions presented in Table 1A at a dosage of 0.5 mpk was measured at 6 hours. The standard MC3 formulation and a PBS control were also tested. As is evident in Table 7, IL-6 induction was highest for compositions including Compounds 1, 3, 9, 19, and 26, while IP-10 induction was highest for compositions including Compounds 3, 4, 7, 20, and 26. IL-6 induction was lowest for compositions including Compounds 4, 11, 12, and 28. IP-10 induction was lowest for compositions including Compounds 10, 11, 12, 13, 15, 17, and 18.
(§1) The expression of hEPO and cytokine induction in mice intravenously administered a nanoparticle composition at a dose of 0.5 mpk were measured at 3, 6, and 24 hours. […] The expression of hEPO in mice intramuscularly administered a nanoparticle composition from Table 1B at a dose of 0.01 mpk were measured at 3, 6, and 24 hours. […] (see also FIG. 9.)

mice [4] = experiment: hEPO expression in mice after intravenous administration; assay type: in vivo
Method: Sample formulations of nanoparticle compositions including different lipids are generally first evaluated according to Luc expression in vivo. The activity of several such compositions was further evaluated using an mRNA encoding hEPO. Nanoparticle compositions including Compounds 6, 18, 25, 30, 108-112, 60, and 122, or MC3 were prepared according to Example 2.
as §1
Table 12 compares the nanoparticle compositions including compounds according to Formula (I), (IA), (II), (IIa), (IIb), (IIc), (IId) or (IIe) to the compositions including MC3 on the basis of expression and flux levels. […] Thus, these lipids may be useful in nanoparticle composition therapeutics. […]

mice [5] = experiment: Luc expression (total flux) after intramuscular administration; assay type: in vivo; conditions: i.m., Luc, 6 h
mice [6] = experiment: Luc expression (bioluminescence, total flux) after intravenous administration to mice; assay type: in vivo; conditions: Luc total flux (Table 3D)
Method: In order to monitor how effectively various nanoparticle compositions deliver therapeutic and/or prophylactics to targeted cells, different nanoparticle compositions including a particular therapeutic and/or prophylactic (for example, a modified or naturally occurring RNA such as an mRNA) are prepared and administered to rodent populations. Mice are intravenously, intramuscularly, intraarterially, or intratumorally administered a single dose including a nanoparticle composition with a formulation such as those provided in Example 3. In some instances, mice may be made to inhale doses. Dose sizes may range from 0.001 mg/kg to 10 mg/kg, where 10 mg/kg describes a dose including 10 mg of a therapeutic and/or prophylactic in a nanoparticle composition for each 1 kg of body mass of the mouse. A control composition including PBS may also be employed.
Upon administration of nanoparticle compositions to mice, dose delivery profiles, dose responses, and toxicity of particular formulations and doses thereof can be measured by enzyme-linked immunosorbent assays (ELISA), bioluminescent imaging, or other methods. For nanoparticle compositions including mRNA, time courses of protein expression can also be evaluated. Samples collected from the rodents for evaluation may include blood, sera, and tissue (for example, muscle tissue from the site of an intramuscular injection and internal tissue); sample collection may involve sacrifice of the animals.
The efficacy of the nanoparticle compositions presented in Table 1A was evaluated with a bioluminescence study. Formulations were administered intravenously to mice (n=6) at a dosage of 0.5 mg/kg (mpk) and bioluminescence measured at 3, 6, and 24 hour time points. The standard MC3 formulation and, in some instances, a control (e.g., a PBS control) were evaluated for comparison. […] In general, flux decreased as time progressed to less than 10% of the initial flux.
The total flux (measured by area under the curve, AUC) induced by administration of a formulation including a given lipid relative to that induced by administration of a formulation including MC3 was also measured for several lipids.
The tolerability and efficacy of nanoparticle compositions to non-human primates was also investigated using sample formulations including Compounds 18, 25, 26, and 48 and MC3 to determine if these compounds are differentiated in terms of protein expression. The formulations were prepared according to the standard MC3 formulation described above and included an hEPO mRNA. Table 30 includes details of the compositions tested, while Table 31 summarizes the relative expression of Luc and hEPO mRNA in mice and rats. Expression was measured 6 hours after administration.

[7] = nanoparticle composition lipid:DSPC:cholesterol:PEG-DMG 50:10:38.5:1.5 mol %, mRNA encoding Luc or hEPO (Table 1A)
[8] = nanoparticle composition 50:10:38.5:1.5 mol % (Table 1A)

Compound: CCCCC/C=C\C/C=C\CCCCCCCCN(CCO)CCCCCCCC(=O)OC(CCCCCCCC)CCCCCCCC [Compound 6, Heptadecan-9-yl 8-((2-hydroxyethyl)((9Z,12Z)-octadeca-9,12-dien-1-yl)amino)octanoate]
- Size (nm) ([1]; hEPO mRNA, lipid:DSPC:Chol:PEG-DMG (50:10:38.5:1.5) (Table 10)): 70.5 nm
- EE (%) ([2]; hEPO mRNA, (50:10:38.5:1.5) (Table 10)): 97.84%
- IL-6 (mice [3]): 136.18
- IP-10 (mice [3]): 316.01
- Cytokine expression (pg/ml) IL-6 (6 h) (mice [3]; hEPO mRNA, 6 h): 10.15 pg/mL
- Cytokine expression (pg/ml) IP-10 (6 h) (mice [3]; hEPO mRNA, 6 h): 116.66 pg/mL
- hEPO concentrations compared with MC3 formulations at each time point (mice [4]; 0.5 mpk, 3, 6 and 24 hours): higher hEPO concentrations than MC3 formulations
- hEPO expression (pg/ml) 3h (mice [4]; 0.5 mpk, 3 h): 2.31e+06 pg/mL
- hEPO expression (pg/ml) 6 h (mice [4]; 0.5 mpk, 6 h): 3.17e+06 pg/mL
- hEPO expression (pg/ml) 24 h (mice [4]; 0.5 mpk, 24 h): 1.11e+06 pg/mL

Compound: CCCCCCCCCOC(=O)CCCCCCCN(CCCCCCCC(=O)OC(CCCCCCCC)CCCCCCCC)CCCNS(C)(=O)=O [Compound 109, Heptadecan-9-yl 8-((3-(methylsulfonamido)propyl)(8-(nonyloxy)-8-oxooctyl)amino)octanoate]
- i.m. Lipid/MC3 0.01 mpk, Luc, 6h (mice [5]): 3.6

Compound: CCCCCCCCCOC(=O)CCCCCCCN(CCCCCCCC(=O)OC(CCCCCCCC)CCCCCCCC)CCCNC(=S)N(C)C [Compound 111, Heptadecan-9-yl 8-((3-(3,3-dimethylthioureido)propyl)(8-(nonyloxy)-8-oxooctyl)amino)octanoate]
- PDI [1]: 0.14
- Size (nm) [1, 7]: 79.3 nm
- i.m. Lipid/MC3 0.01 mpk, Luc, 6h (mice [5]): 4.9

Compound: CCCCCCCCCOC(=O)CCCCCCCN(CCO)CCCCCCC(=O)OCC(CCCCCCCC)CCCCCCCC [Compound 143, Nonyl 8-((2-hydroxyethyl)(7-((2-octyldecyl)oxy)-7-oxoheptyl)amino)octanoate]
- PDI [1]: 0.19
- Size (nm) [1, 7]: 93.3 nm
- EE (%) [2, 8]: 96.4%
- IL-6 (mice [3]): 6.245
- IP-10 (mice [3]): 209.63

Compound: CCCCCCCCCOC(=O)CCCCCCCN(CCCCCCCC(=O)OC(CCCCCCCC)CCCCCCCC)C(C)CO (stereo not shown) [Compound 157, Heptadecan-9-yl 8-((1-hydroxypropan-2-yl)(8-(nonyloxy)-8-oxooctyl)amino)octanoate]
- PDI [1]: 0.096
- Size (nm) [1, 7]: 69.6 nm
- EE (%) [2, 8]: 96.43%
- AUC (p/s*h) (mice [6]): 2.481E+011 p/s*h

Compound: CCCCCCCCCOC(=O)CCCCCCCN(CCCCCCCC(=O)OC(CCCCCCCC)CCCCCCCC)CCCNc1c(N(C)C)c(=O)c1=O [Compound 169, Heptadecan-9-yl 8-((3-((2-(dimethylamino)-3,4-dioxocyclobut-1-en-1-yl)amino)propyl)(8-(nonyloxy)-8-oxooctyl)amino)octanoate]
- PDI [1]: 0.18
- Size (nm) [1, 7]: 75.4 nm
- i.m. Lipid/MC3 0.01 mpk, Luc, 6h (mice [5]): 3.3

Compound: CCCCCCCCCOC(=O)CCCCCCCN(CCCCCCCC(=O)OC(CCCCCCCC)CCCCCCCC)CCCN/C(=C/[N+](=O)[O-])NC [Compound 170, Heptadecan-9-yl (E)-8-((3-((1-(methylamino)-2-nitrovinyl)amino)propyl)(8-(nonyloxy)-8-oxooctyl)amino)octanoate]
- PDI [1]: 0.12
- Size (nm) [1, 7]: 71.7 nm
- i.m. Lipid/MC3 0.01 mpk, Luc, 6h (mice [5]): 5.3

Compound: CCCCCCCCCOC(=O)CCCCCCCN(CCCCCCCC(=O)OC(CCCCCCCC)CCCCCCCC)CCCN(C)S(C)(=O)=O [Compound 173, Heptadecan-9-yl 8-((3-(N-methylmethylsulfonamido)propyl)(8-(nonyloxy)-8-oxooctyl)amino)octanoate]
- i.m. Lipid/MC3 0.01 mpk, Luc, 6h (mice [5]): 0.6

Compound: CCCCCCCCCOC(=O)CCCCCCCN(CCCCCCCC(=O)OC(CCCCCCCC)CCCCCCCC)CCCN1C(=O)CNC1=O [Compound 174, Heptadecan-9-yl 8-((3-(2,5-dioxoimidazolidin-1-yl)propyl)(8-(nonyloxy)-8-oxooctyl)amino)octanoate]
- PDI [1]: 0.12
- Size (nm) [1, 7]: 61.4 nm
- i.m. Lipid/MC3 0.01 mpk, Luc, 6h (mice [5]): 0.2

Compound: CCCCCCCCCOC(=O)CCCCCCCN(CCCCCCCC(=O)OC(CCCCCCCC)CCCCCCCC)CCCOC(=O)NC [Compound 175, Heptadecan-9-yl 8-((3-((methylcarbamoyl)oxy)propyl)(8-(nonyloxy)-8-oxooctyl)amino)octanoate]
- PDI [1]: 0.2
- Size (nm) [1, 7]: 65.4 nm
- EE (%) [2, 8]: 93.23%
- i.m. Lipid/MC3 0.01 mpk, Luc, 6h (mice [5]): 0.1
